Structures are written as SMILES.

Chain of MAPK14 (human) (Q16539 whole entry, looked up): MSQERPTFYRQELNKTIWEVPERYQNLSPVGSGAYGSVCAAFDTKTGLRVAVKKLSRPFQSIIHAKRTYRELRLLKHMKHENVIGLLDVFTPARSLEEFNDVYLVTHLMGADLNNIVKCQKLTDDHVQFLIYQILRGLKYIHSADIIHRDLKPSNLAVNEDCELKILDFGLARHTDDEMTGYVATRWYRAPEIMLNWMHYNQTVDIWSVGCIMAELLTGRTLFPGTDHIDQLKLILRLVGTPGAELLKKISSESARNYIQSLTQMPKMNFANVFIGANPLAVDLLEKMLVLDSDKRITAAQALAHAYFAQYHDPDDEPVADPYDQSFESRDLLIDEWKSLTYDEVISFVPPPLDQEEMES

This test addresses MAPK14 (human) (UniProt Q16539). In words: Inhibition of MAPK14 Kinase Activity.
As a reminder, the IC50 is the concentration at which inhibition is half-maximal. A lower IC50 goes with higher potency. As for `Cc1cc(C(=O)N2CCOCC2)cc(C)c1N1CC(Cc2ccc(F)cc2F)CCC1=O` (stereo not drawn), the concentration for half-maximal inhibition (IC50) was ≤ 10 µM.
`Cc1cc(C(=O)NCCCN(C)C)cc(C)c1N1CC(Cc2ccc(F)cc2F)CCC1=O` (stereo not drawn): the IC50 was ≤ 10 µM.
As to `Nc1ccc(Cl)c(N2CC(Cc3ccc(F)cc3F)CSC2=O)c1Cl` (stereo not drawn), the IC50 is ≤ 10 µM.
Then `Cc1ccccc1OC1CCC(=O)N(c2c(Cl)csc2Cl)C1` (stereo not drawn), with ≤ 10 µM; and `CC[C@@H]1C[C@@H](Cc2ccc(F)cc2F)CN(c2c(Cl)cccc2Cl)C1=O`, with ≤ 10 µM; and `Cc1ccc(SC2CCC(=O)N(c3c(Cl)csc3Cl)C2)cc1` (stereo not drawn), with ≤ 10 µM.
Then `Cc1cc(C(=O)NCCN(C)C)cc(C)c1N1C[C@@H](Cc2ccc(F)cc2F)C[C@@H](C)C1=O`, with ≤ 10 µM; and `O=C(CCCCO)Nc1cc(Cl)c(N2CC(Cc3ccc(F)cc3F)CCC2=O)c(Cl)c1` (stereo not drawn), with ≤ 10 µM.
Turning to `CN1CC(Cc2ccc3ccccc3c2)CN(c2c(Cl)cccc2Cl)C1=O` (stereo not drawn), the IC50 was ≤ 10 µM.
As for `COc1ccccc1CC1CCC(=O)N(c2c(Cl)cncc2Cl)C1` (stereo not drawn), the IC50 is ≤ 10 µM.
Consider `CN1CC(Cc2ccc(F)cc2F)CN(c2c(Cl)cc(O)cc2Cl)C1=O` (stereo not drawn), for which the IC50 was ≤ 10 µM.
For the compound `CN(C)CCCNc1cc(Cl)c(N2CC(Cc3ccc(F)cc3F)CCC2=O)c(Cl)c1` (stereo not drawn), the IC50 is ≤ 10 µM.
Turning to `O=C1CCC(Cc2cc(Cl)cc(Cl)c2)CN1c1c(Cl)ccnc1Cl` (stereo not drawn), the IC50 is ≤ 10 µM.
Then `O=C(Cc1ccccc1)Nc1ccc(Cl)c(N2CC(Cc3ccc(F)cc3F)OCC2=O)c1Cl` (stereo not drawn), with ≤ 10 µM; and `O=C1CCC(Sc2cc(Cl)cc(Cl)c2)CN1C1C(Cl)CCCC1Cl` (stereo not drawn), with ≤ 10 µM; and `CC(=O)Nc1cnc(Cl)c(N2CC(Oc3ccc(F)cc3F)CCC2=O)c1Cl` (stereo not drawn), with ≤ 10 µM.
For `O=C1SCC(Cc2ccc(F)cc2F)CN1c1c(Cl)ccc(O)c1Cl` (stereo not drawn), the IC50 is ≤ 10 µM.
As to `CC1(C)NC(=O)N(CCNc2cc(Cl)c(N3CC(Cc4ccc(F)cc4F)CCC3=O)c(Cl)c2)C1=O` (stereo not drawn), the half-inhibitory concentration (IC50) is ≤ 10 µM.
Turning to `Cc1ccc(SC2CCC(=O)N(c3c(Cl)cncc3Cl)C2)c(C)c1` (stereo not drawn), the 50% inhibitory concentration (IC50) was ≤ 10 µM.
Regarding `NC1CC(Cl)C(N2CC(Sc3ccc(F)cc3F)CCC2=O)C(Cl)C1` (stereo not drawn), the IC50 is ≤ 10 µM.
Turning to `NC1CCC(Cl)C(N2CC(Oc3ccc(F)cc3F)CCC2=O)C1Cl` (stereo not drawn), the 50% inhibitory concentration (IC50) is ≤ 10 µM.
For `O=C1CCC(Sc2ccc(F)cc2)CN1c1c(Cl)cccc1Cl` (stereo not drawn), the IC50 is ≤ 10 µM.
In the case of `CNc1cnc(Cl)c(N2CC(Oc3ccc(F)cc3F)CCC2=O)c1Cl` (stereo not drawn), the IC50 is ≤ 10 µM.
In the case of `O=C1CCC(Sc2ccccc2)CN1C1C(Cl)CCCC1Cl` (stereo not drawn), the IC50 is ≤ 10 µM.
Regarding `Cc1cc(C)cc(SC2CCC(=O)N(c3c(Cl)cncc3Cl)C2)c1` (stereo not drawn), the half-inhibitory concentration (IC50) was ≤ 10 µM.
Turning to `NCc1ccccc1CC1CCC(=O)N(c2c(Cl)cccc2Cl)C1` (stereo not drawn), the concentration for half-maximal inhibition (IC50) was ≤ 10 µM.
For the compound `O=C(Cc1ccccc1)Nc1ncc(Cl)c(N2CC(Cc3ccc(F)cc3F)CCC2=O)c1Cl` (stereo not drawn), the IC50 was ≤ 10 µM.
Regarding `COc1ccc(CC2CN(c3c(Cl)cccc3Cl)C(=O)CO2)cc1` (stereo not drawn), the 50% inhibitory concentration (IC50) is ≤ 10 µM.
Then `O=C(Cc1ccccc1)Nc1cc(Cl)c(N2CC(Cc3ccc(F)cc3F)CCC2=O)c(Cl)c1` (stereo not drawn), with ≤ 10 µM; and `O=C1CCC(Oc2ccc(F)cc2F)CN1c1c(Cl)ccc(O)c1Cl` (stereo not drawn), with ≤ 10 µM; and `O=C1CCC(Cc2ccc(Cl)cc2)CN1c1c(Cl)csc1Cl` (stereo not drawn), with ≤ 10 µM.
On to `Cc1ccc(OC2CCC(=O)N(c3c(Cl)cccc3Cl)C2)cc1` (stereo not drawn), for which the IC50 is ≤ 10 µM.
Turning to `O=C1CCC(Cc2ccc(Cl)cc2)CN1c1c(Cl)cccc1Cl` (stereo not drawn), the IC50 is ≤ 10 µM.
With `O=C1CCC(Oc2ccccc2Cl)CN1c1c(Cl)cncc1Cl` (stereo not drawn), the IC50 is ≤ 10 µM.
For `O=C1CCC(Cc2ccc(F)cc2F)CN1C1CCCCC1` (stereo not drawn), the half-inhibitory concentration (IC50) is ≤ 10 µM.
With `O=C(Cc1ccccc1)Nc1ncc(Cl)c(N2CC(Sc3ccc(F)cc3F)CCC2=O)c1Cl` (stereo not drawn), the 50% inhibitory concentration (IC50) was ≤ 10 µM.
Consider `O=C1CCC(Sc2ccc(F)cc2)CN1c1c(Cl)cncc1Cl` (stereo not drawn), for which the IC50 was ≤ 10 µM.
Consider `O=C1SCC(Cc2ccc(F)cc2F)CN1c1c(Cl)ccc(CO)c1Cl` (stereo not drawn), for which the IC50 was ≤ 10 µM.
On to `CNc1cnc(Cl)c(N2CC(Sc3ccc(F)cc3F)CCC2=O)c1Cl` (stereo not drawn), for which the IC50 is ≤ 10 µM.
In the case of `O=C1CCC(Sc2ccc(Cl)cc2)CN1c1c(Cl)cccc1Cl` (stereo not drawn), the IC50 is ≤ 10 µM.
Then `Cc1ccc(CC2CCC(=O)N(c3c(Cl)ccnc3Cl)C2)cc1` (stereo not drawn), with ≤ 10 µM.
On to `Cc1cc(N)cc(C)c1N1CC(Cc2ccc(F)cc2F)CNC1=O` (stereo not drawn), for which the half-inhibitory concentration (IC50) is ≤ 10 µM.
Then `O=C1CCC(Oc2ccccc2)CN1c1c(Cl)ccnc1Cl` (stereo not drawn), with ≤ 10 µM; and `O=C1CCC(Cc2ccc(F)cc2F)CN1c1c(Cl)cc(NCCN2CCCC2)cc1Cl` (stereo not drawn), with ≤ 10 µM.
`O=C1SCC(Cc2ccc(Cl)cc2Cl)CN1c1c(Cl)cccc1Cl` (stereo not drawn): the IC50 was ≤ 10 µM.
Then `CC(=O)Nc1cc(Cl)c(N2CC(Sc3ccc(F)cc3F)CCC2=O)c(Cl)n1` (stereo not drawn), with ≤ 10 µM; and `CC(=O)Nc1cnc(Cl)c(N2CC(Cc3ccc(F)cc3F)CCC2=O)c1Cl` (stereo not drawn), with ≤ 10 µM; and `CNc1ncc(Cl)c(N2CC(Sc3ccc(F)cc3F)CCC2=O)c1Cl` (stereo not drawn), with ≤ 10 µM.
Turning to `Cc1ccccc1OC1CCC(=O)N(c2c(Cl)ccnc2Cl)C1` (stereo not drawn), the half-maximal inhibitory concentration (IC50) was ≤ 10 µM.
Turning to `O=C1CCC(Oc2ccc(F)cc2)CN1c1c(Cl)csc1Cl` (stereo not drawn), the IC50 is ≤ 10 µM.
Take `C[C@@H]1C[C@H](Cc2ccc(F)cc2F)CN(c2c(Cl)cc(Br)cc2Cl)C1=O`: the concentration for half-maximal inhibition (IC50) is ≤ 10 µM.
For `O=C1CCC(Cc2ccc(F)cc2F)CN1c1c(Cl)cc([N+](=O)[O-])cc1Cl` (stereo not drawn), the 50% inhibitory concentration (IC50) was ≤ 10 µM.
`Nc1ncc(Cl)c(N2CC(Cc3ccc(F)cc3F)CCC2=O)c1Cl` (stereo not drawn): the IC50 was ≤ 10 µM.
For the compound `Cc1ccc(CC2CCC(=O)N(C3C(Cl)CCCC3Cl)C2)c(C)c1` (stereo not drawn), the half-inhibitory concentration (IC50) was ≤ 10 µM.
With `O=C1CSC(Cc2cc(Cl)cc(Cl)c2)CN1c1c(Cl)cccc1Cl` (stereo not drawn), the IC50 is ≤ 10 µM.
As to `CNc1cnc(Cl)c(N2CC(Cc3ccc(F)cc3F)CCC2=O)c1Cl` (stereo not drawn), the half-inhibitory concentration (IC50) was ≤ 10 µM.
As to `CCOC(=O)CN(C(=O)OC(C)(C)C)c1cc(Cl)c(N2CC(Cc3ccc(F)cc3F)CCC2=O)c(Cl)c1` (stereo not drawn), the half-maximal inhibitory concentration (IC50) was ≤ 10 µM.
With `O=C1CCC(Cc2ccc3ccccc3c2)CN1c1c(Cl)cccc1Cl` (stereo not drawn), the IC50 is ≤ 10 µM.
As for `O=C1CCC(Sc2ccccc2)CN1c1c(Cl)cncc1Cl` (stereo not drawn), the concentration for half-maximal inhibition (IC50) was ≤ 10 µM.
Consider `COc1ccccc1CC1CN(C)C(=O)N(c2c(Cl)cccc2Cl)C1` (stereo not drawn), for which the half-maximal inhibitory concentration (IC50) is ≤ 10 µM.
In the case of `Nc1cc(Cl)c(N2CC(Cc3ccc(F)cc3F)SCC2=O)c(Cl)c1` (stereo not drawn), the IC50 was ≤ 10 µM.
For `O=C1NCC(Cc2ccc(Cl)cc2Cl)CN1c1c(Cl)cccc1Cl` (stereo not drawn), the IC50 was ≤ 10 µM.
Consider `Cc1ccc(SC2CCC(=O)N(c3c(Cl)ccnc3Cl)C2)cc1` (stereo not drawn), for which the half-inhibitory concentration (IC50) is ≤ 10 µM.
For `CN(C)CCNC(=O)c1cc(Cl)c(N2CC(Cc3ccc(F)cc3F)CCC2=O)c(Cl)c1` (stereo not drawn), the half-maximal inhibitory concentration (IC50) is ≤ 10 µM.
Take `CN(C)c1cc(Cl)c(N2CC(Cc3ccc(F)cc3F)CCC2=O)c(Cl)c1` (stereo not drawn): the IC50 is ≤ 10 µM.
Turning to `Cc1ccccc1SC1CCC(=O)N(c2c(Cl)csc2Cl)C1` (stereo not drawn), the half-inhibitory concentration (IC50) is ≤ 10 µM.
Then `Cc1cc(C)cc(CC2CCC(=O)N(c3c(Cl)csc3Cl)C2)c1` (stereo not drawn), with ≤ 10 µM; and `C=C(c1ccc(F)cc1F)C1CCC(=O)N(c2c(Cl)cccc2Cl)C1` (stereo not drawn), with ≤ 10 µM; and `O=C1CCC(Sc2ccccc2Cl)CN1c1c(Cl)csc1Cl` (stereo not drawn), with ≤ 10 µM.
Take `C[C@@H]1C[C@H](Cc2ccc(F)cc2F)CN(c2c(Cl)cc(N)cc2Cl)C1=O`: the IC50 was ≤ 10 µM.
Consider `O=C1COC(Cc2ccccc2)CN1c1c(Cl)cccc1Cl` (stereo not drawn), for which the IC50 is ≤ 10 µM.
For the compound `O=C1CSC(Cc2ccccc2F)CN1c1c(Cl)cccc1Cl` (stereo not drawn), the IC50 was ≤ 10 µM.
As for `O=C1CCC(Sc2ccc(F)cc2)CN1C1C(Cl)CCCC1Cl` (stereo not drawn), the IC50 is ≤ 10 µM.
With `O=C1CCC(Oc2ccc(F)cc2F)CN1C1C(Cl)CC(O)CC1Cl` (stereo not drawn), the IC50 was ≤ 10 µM.
On to `O=C1CCC(Oc2ccc(Cl)cc2)CN1c1c(Cl)ccnc1Cl` (stereo not drawn), for which the IC50 is ≤ 10 µM.
Then `CC(=O)Nc1ccc(Cl)c(N2CC(Oc3ccc(F)cc3F)CCC2=O)c1Cl` (stereo not drawn), with ≤ 10 µM.
As for `O=C1CC[C@H](Cc2ccc(F)cc2F)CN1c1c(Cl)cccc1Cl`, the IC50 is ≤ 10 µM.
For `CN(C)CCNC(=O)CNc1cc(Cl)c(N2CC(Cc3ccc(F)cc3F)CCC2=O)c(Cl)c1` (stereo not drawn), the IC50 is ≤ 10 µM.
On to `CNc1sc(Cl)c(N2CC(Sc3ccc(F)cc3F)CCC2=O)c1Cl` (stereo not drawn), for which the IC50 is ≤ 10 µM.
Then `O=C1OCC(Cc2ccc(F)cc2F)CN1c1c(Cl)ccc(CO)c1Cl` (stereo not drawn), with ≤ 10 µM.
As to `CNC(=O)CNc1cc(Cl)c(N2CC(Cc3ccc(F)cc3F)CCC2=O)c(Cl)c1` (stereo not drawn), the IC50 was ≤ 10 µM.
`O=C1COC(Cc2cc(Cl)cc(Cl)c2)CN1c1c(Cl)cccc1Cl` (stereo not drawn): the half-inhibitory concentration (IC50) was ≤ 10 µM.
Turning to `COCOCc1ccccc1CC1CCC(=O)N(c2c(Cl)cccc2Cl)C1` (stereo not drawn), the IC50 is ≤ 10 µM.
Then `Cc1ccc(CC2CCC(=O)N(c3c(Cl)csc3Cl)C2)c(C)c1` (stereo not drawn), with ≤ 10 µM; and `O=C1CCC(Cc2ccccc2)CN1c1c(Cl)cc([N+](=O)[O-])cc1Cl` (stereo not drawn), with ≤ 10 µM.
With `CC(=O)Nc1ccc(Cl)c(N2CC(Cc3ccc(F)cc3F)CNC2=O)c1Cl` (stereo not drawn), the IC50 was ≤ 10 µM.
Then `O=C1CCC(Sc2ccc(Cl)cc2Cl)CN1C1C(Cl)CCCC1Cl` (stereo not drawn), with ≤ 10 µM; and `Cc1ccc(CC2CCC(=O)N(c3c(Cl)cccc3Cl)C2)c(C)c1` (stereo not drawn), with ≤ 10 µM; and `O=C1CCC(Oc2ccc(Cl)cc2Cl)CN1C1C(Cl)CCCC1Cl` (stereo not drawn), with ≤ 10 µM.
For `Cc1cc(CCCCCO)cc(C)c1N1CC(Cc2ccc(F)cc2F)CCC1=O` (stereo not drawn), the IC50 is ≤ 10 µM.
Then `Cc1cc(Br)cc(C)c1N1CC(Cc2ccc(F)cc2F)CCC1=O` (stereo not drawn), with ≤ 10 µM.
Turning to `O=C1CCC(Cc2ccc(F)cc2)CN1c1c(Cl)cncc1Cl` (stereo not drawn), the half-maximal inhibitory concentration (IC50) was ≤ 10 µM.
Then `Nc1ccc(Cl)c(N2CC(Cc3ccc(F)cc3F)CCC2=O)c1Cl` (stereo not drawn), with ≤ 10 µM; and `COc1ccccc1SC1CCC(=O)N(c2c(Cl)ccnc2Cl)C1` (stereo not drawn), with ≤ 10 µM; and `Nc1sc(Cl)c(N2CC(Sc3ccc(F)cc3F)CCC2=O)c1Cl` (stereo not drawn), with ≤ 10 µM.
Then `O=C1OCC(Cc2ccc(F)cc2F)CN1c1c(Cl)cccc1Cl` (stereo not drawn), with ≤ 10 µM; and `CS(=O)(=O)Nc1cc(Cl)c(N2CC(Cc3ccc(F)cc3F)CCC2=O)c(Cl)c1` (stereo not drawn), with ≤ 10 µM; and `O=C1CCC(Cc2ccc(F)cc2F)CN1c1c(Cl)cc(N2CCNCC2)cc1Cl` (stereo not drawn), with ≤ 10 µM.

For the origin of these results see the Kinase Knowledgebase extract (Sharma et al. 2016).
